From ChEMBL document CHEMBL3588817, “Discovery of 4,5,6,7-Tetrahydrobenzo[1,2-d]thiazoles as Novel DNA Gyrase Inhibitors Targeting the ATP-Binding Site” (J Med Chem, 2015)

Experiments:
Escherichia coli [1] = assay: Inhibition of Escherichia coli DNA topoisomerase 4 assessed as residual enzyme activity at 100 uM using relaxed pNO1 plasmid and biotinylated oligonucelotide incubated for 30 mins by fluorescence based DNA relaxation assay
Escherichia coli [2] = assay: Antibacterial activity against wild type Escherichia coli ATCC 25922 assessed as inhibition of microbial growth by broth microdilution method; assay type: functional
Escherichia coli [3] = assay: Antibacterial activity against wild type Escherichia coli ATCC 25922 assessed as inhibition of microbial growth at 50 uM by broth microdilution method; assay type: functional; settings: read-out: GI
Enterococcus faecalis [4] = assay: Antibacterial activity against Enterococcus faecalis ATCC 29212 assessed as inhibition of microbial growth at 50 uM by broth microdilution method; assay type: functional; settings: read-out: GI
Pseudomonas aeruginosa [5] = assay: Antibacterial activity against Pseudomonas aeruginosa ATCC 27853 assessed as inhibition of microbial growth by broth microdilution method; assay type: functional
DNA gyrase = DNA gyrase (Escherichia coli, UniProt P0AES4+P0AES6); assay: Inhibition of Escherichia coli DNA gyrase using relaxed pNO1 plasmid and biotinylated oligonucelotide incubated for 30 mins by fluorescence based DNA super-coiling assay; assay type: protein-complex assay
Enterococcus faecalis [6] = assay: Antibacterial activity against Enterococcus faecalis ATCC 29212 assessed as inhibition of microbial growth by broth microdilution method; assay type: functional
[7] = biological target: Topoisomerase IV (Staphylococcus aureus) (UniProt P0C1U9+P0C1S7); assay: Inhibition of Staphylococcus aureus DNA topoisomerase 4 assessed as residual enzyme activity at 100 uM using relaxed pNO1 plasmid and biotinylated oligonucelotide incubated for 30 mins by fluorescence based DNA relaxation assay; assay type: protein-complex assay
Staphylococcus aureus [8] = assay: Antibacterial activity against Staphylococcus aureus 25923 assessed as inhibition of microbial growth by broth microdilution method; assay type: functional
Staphylococcus aureus [9] = assay: Antibacterial activity against Staphylococcus aureus 25923 assessed as inhibition of microbial growth at 50 uM by broth microdilution method; assay type: functional; settings: read-out: GI
Pseudomonas aeruginosa [10] = assay: Antibacterial activity against Pseudomonas aeruginosa ATCC 27853 assessed as inhibition of microbial growth at 50 uM by broth microdilution method; assay type: functional; settings: read-out: GI
[11] = biological target: DNA gyrase (Staphylococcus aureus) (UniProt P0A0K8+P20831); assay: Inhibition of Staphylococcus aureus DNA gyrase assessed as residual enzyme activity at 100 uM using relaxed pNO1 plasmid and biotinylated oligonucelotide incubated for 30 mins by fluorescence based DNA super-coiling assay; assay type: protein-complex assay
Escherichia coli [12] = assay: Antibacterial activity against wild type Escherichia coli ATCC 25922 by broth microdilution method; assay type: functional
Escherichia coli [13] = assay: Antibacterial activity against efflux deficient Escherichia coli tolC::Tn10 lacking functional tolC gene by broth microdilution method
Escherichia coli [14] = assay: Antibacterial activity against Escherichia coli imp4213::Tn10 by broth microdilution method; assay type: functional

Activity (Escherichia coli [1]) | MIC (Escherichia coli [2]) | MIC (Pseudomonas aeruginosa [5]) | IC50 (DNA gyrase) | MIC (Enterococcus faecalis [6]) | Activity [7] | MIC (Staphylococcus aureus [8]) | Activity [11] | MIC (Escherichia coli [12]) | MIC (Escherichia coli [13]) | MIC (Escherichia coli [14]) | SMILES | inhibition of growth at 50 µM (Escherichia coli [3]) | inhibition of growth at 50 µM (Enterococcus faecalis [4]) | inhibition of growth at 50 µM (Staphylococcus aureus [9]) | inhibition of growth at 50 µM (Pseudomonas aeruginosa [10])
101% | > 125 µM | > 125 µM | 10 µM | > 125 µM | 99% | > 125 µM | 76% | – | – | – | CCOC(=O)C(=O)Nc1nc2c(s1)C[C@@H](NC(=O)c1cc3ccccc3[nH]1)CC2 | < 50% | < 50% | < 50% | < 50%
– | – | – | 120 µM | – | – | – | – | – | – | – | Nc1nc2c(s1)CC(CNC(=O)c1cc(Br)c(Br)[nH]1)CC2 (stereo not drawn) | – | – | – | –
97% | > 125 µM | > 125 µM | 29 µM | > 125 µM | 103% | > 125 µM | 119% | – | – | – | Nc1ncc2c(n1)CCC(NC(=O)c1cc3ccccc3[nH]1)C2 (stereo not drawn) | < 50% | < 50% | < 50% | < 50%
– | > 125 µM | > 125 µM | 12 µM | > 125 µM | – | > 125 µM | – | > 256 µg/mL | > 256 µg/mL | > 256 µg/mL | O=C1CCN2C(=N1)SC1=C2CC[C@H](NC(=O)c2cc(Br)c(Br)[nH]2)C1 | < 50% | < 50% | < 50% | < 50%
101% | > 125 µM | > 125 µM | 9.1 µM | > 125 µM | 104% | > 125 µM | 87% | – | – | – | COC(=O)CCC(=O)Nc1nc2c(s1)C[C@@H](NC(=O)c1cc3ccccc3[nH]1)CC2 | < 50% | < 50% | < 50% | < 50%
96% | – | – | 5.7 µM | – | 106% | – | 90% | – | – | – | Nc1ncc2c(n1)CCC(NC(=O)c1cc(Cl)c(Cl)[nH]1)C2 (stereo not drawn) | – | – | – | –
– | – | – | 170 µM | – | – | – | – | – | – | – | Nc1ncc2c(n1)CCC(CNC(=O)c1cc(Br)c(Br)[nH]1)C2 (stereo not drawn) | – | – | – | –
97% | > 125 µM | > 125 µM | 35 µM | > 125 µM | 105% | > 125 µM | 100% | – | – | – | Nc1ncc2c(n1)CCC(NC(=O)c1cc(Br)c[nH]1)C2 (stereo not drawn) | < 50% | < 50% | < 50% | < 50%
– | > 125 µM | > 125 µM | 520 µM | > 125 µM | – | > 125 µM | – | – | – | – | Nc1nc2c(s1)C[C@@H](NC(=O)c1cc(Br)c[nH]1)CC2 | < 50% | < 50% | < 50% | < 50%
– | > 125 µM | > 125 µM | 35 µM | > 125 µM | – | > 125 µM | – | > 256 µg/mL | > 256 µg/mL | > 256 µg/mL | COC(=O)CC(=O)Nc1nc2c(s1)C[C@@H](NC(=O)c1cc3ccccc3[nH]1)CC2 | < 50% | < 50% | < 50% | < 50%
103% | – | – | 21 µM | – | 100% | – | 87% | – | – | – | Nc1nc2c(s1)C[C@@H](NC(=O)c1cc3ccccc3[nH]1)CC2 | – | – | – | –
– | > 125 µM | > 125 µM | 270 µM | > 125 µM | – | > 125 µM | – | > 256 µg/mL | > 256 µg/mL | > 256 µg/mL | Nc1nc2c(s1)C[C@@H](NC(=O)c1cc3cc(F)ccc3[nH]1)CC2 | < 50% | < 50% | < 50% | < 50%
